Source: PubChem BioAssay (NCI)
“And” between values parts separate entries of the source, which are not always exact repeats. Identical values can stand only once.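 Step 1: Grow cells in 96-well plates. Step 2: Expose to compound for 48 hours at 5 concentrations. Step 3: Interpolate endpoints linearly; if unreached, use highest concentration. At the GI50, growth is halved. TGI: concentration producing complete growth inhibition.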

Experiments:
Assay in all cases: growth of human tumour cells (NCI), 48 h
[1] = test system: CCRF-CEM leukemia
[2] = test system: DU-145 prostate
[3] = test system: HCT-15 colon
[4] = test system: HT29 colon
[5] = test system: K-562 leukemia
[6] = test system: MCF7 breast
[7] = test system: MDA-MB-435
[8] = test system: MOLT-4 leukemia
[9] = test system: OVCAR-8 ovarian
[10] = test system: U251 CNS

Compound | GI50 [1] | TGI [1] | GI50 [2] | TGI [2] | GI50 [3] | TGI [3] | GI50 [4] | TGI [4] | GI50 [5] | TGI [5] | GI50 [6] | TGI [6] | GI50 [7] | TGI [7] | GI50 [8] | TGI [8] | GI50 [9] | TGI [9] | GI50 [10] | TGI [10]
CCCCCCCCCCCC[N+](C)(C)Cc1ccccc1 | 1.88 µM | 5.43 µM | 3.61 µM | 13.6 µM | 13.1 µM | 34.3 µM | 1.23 µM | 3.24 µM | 1.56 µM | 6.63 µM | 2.01 µM | 7.7 µM | 1.58 µM | 3.72 µM | 2.18 µM | 5.4 µM | 2.16 µM | 6.75 µM | 1.48 µM | 3.51 µM
C=C1C(=O)O[C@H]2[C@H]1CC/C(COC(=O)c1cn(C)c3ccccc13)=C\CC[C@@]1(C)O[C@@H]21 | 0.217 µM | 0.94 µM | 1.01 µM | 2.2 µM | 0.539 µM | 2.26 µM | 0.526 µM | 1.78 µM | 0.4 µM | 5.13 µM | 0.4 µM | 1.98 µM | 1.34 µM | 3.34 µM | 0.578 µM | 3.54 µM | 0.8 µM | 2.4 µM | 1.42 µM | 2.77 µM
COC1(OC)C2(Cl)C(Cl)=C(Cl)C1(Cl)C1c3ccc(C(C)=O)c4cccc(c34)C12 (stereo not drawn) | – | > 79.2 µM | – | > 100 µM | – | > 100 µM | – | > 100 µM | – | > 100 µM | – | > 100 µM | – | 43.5 µM | – | > 77.6 µM | – | > 100 µM | – | 99.9 µM
CCNc1cc2oc(=O)cc(C(F)(F)F)c2cc1C | – | – | – | > 100 µM | – | > 100 µM | – | > 100 µM | – | > 100 µM | – | > 100 µM | – | > 100 µM | – | > 100 µM | – | > 100 µM | – | > 100 µM
Cc1cc(C(=O)Nc2cc(Oc3ccc4nc(NC(=O)C5CC5)cn4n3)ccc2C)n(C)n1 | > 10 µM | > 10 µM | > 10 µM | > 10 µM | 6.49 µM | > 10 µM | > 10 µM | > 10 µM | 0.555 µM | > 10 µM | 6.41 µM | > 10 µM | 3.22 µM | > 10 µM | > 10 µM | > 10 µM | > 10 µM | > 10 µM | > 10 µM | > 10 µM
O=C1NC(=O)[C@@]2(CC[C@@H](O)C2)c2ccncc21 | – | > 100 µM | – | > 100 µM | – | > 100 µM | – | > 100 µM | – | > 100 µM | – | > 100 µM | – | > 100 µM | – | > 100 µM | – | > 100 µM | – | > 100 µM
O=C1C=C2C=CC3CC2(O1)C1CCCCN31 (stereo not drawn) | 15.3 µM and 11 µM and 28.4 µM | 96.6 µM and 41.3 µM and 83.3 µM | – | 50.1 µM and 36.1 µM and > 100 µM | 11.4 µM and 11.8 µM and 31 µM | 46.4 µM and 29.4 µM and > 100 µM | 16.1 µM and 12.9 µM and 34.7 µM | 46.2 µM and 27.8 µM and > 100 µM | – | > 100 µM and 41.8 µM | 15.3 µM and 16.8 µM and 32.6 µM | 70.4 µM and 39.5 µM and > 100 µM | 10.1 µM and 8.06 µM and 22 µM | 41.6 µM and 39.3 µM and 66.3 µM | – | 72.6 µM and 56.1 µM and > 100 µM | – | 72.6 µM and 40.2 µM and 93.8 µM | 20 µM and 27.7 µM and 60.9 µM | 62 µM and 88.8 µM and > 100 µM
C/C(=N\NC(=O)CC#N)C(CN1CCCCC1)C(c1ccccc1)c1c(O)c2ccccc2oc1=O (stereo not drawn) | – | 73.5 µM | – | > 100 µM | – | > 100 µM | – | > 100 µM | – | > 100 µM | – | 40.6 µM | – | > 100 µM | – | 69.4 µM | – | > 100 µM | – | > 100 µM
COc1cccc(-n2ncc3c(N/N=C/c4ccc(C)cc4)ncnc32)c1 | > 25 µM | > 25 µM | > 25 µM | > 25 µM | > 25 µM | > 25 µM | 1.89 µM | > 25 µM | > 25 µM | > 25 µM | 7.2 µM | > 25 µM | > 22.4 µM | > 25 µM | > 25 µM | > 25 µM | > 25 µM | > 25 µM | > 25 µM | > 25 µM
COC12C=C/C(=C(/C(=O)OCCSc3ccnn3C)C(=O)CCCCCCCCC3(OC)C=C/C(=C(/C(=O)OCCSc4ccnn4C)C(=O)CCCCCCCC1)O3)O2 | 1.09 µM | > 32.5 µM | 1.31 µM | > 32.5 µM | 1.08 µM | 4.39 µM | 1.25 µM | > 32.5 µM | 1.05 µM | 18 µM | 0.927 µM | 15.2 µM | 0.685 µM | 1.57 µM | – | – | 1 µM | 6.79 µM | 0.979 µM | 3.32 µM
Cc1c(N)nc([C@H](CC(N)=O)NC[C@H](N)C(N)=O)nc1C(=O)N[C@H](C(=O)N[C@H](C)[C@@H](O)CC(=O)N[C@H](C(=O)NC(O[C@@H]1O[C@@H](C)[C@@H](N)[C@@H](O)[C@H]1O)C(O)c1nc(-c2nc(C(=O)NCCCCN)cs2)cs1)[C@@H](C)O)[C@@H](O[C@@H]1O[C@@H](CO)[C@@H](O)[C@H](O)[C@@H]1O[C@H]1O[C@H](CO)[C@@H](O)[C@H](OC(N)=O)[C@@H]1O)c1c[nH]cn1 (stereo partly drawn) | – | > 50 µM | – | > 50 µM | – | > 50 µM | – | > 50 µM | – | > 50 µM | – | > 50 µM | – | > 50 µM | – | > 50 µM | – | > 50 µM | – | > 50 µM
O=C(O)CNc1ccc(Cl)c(Cl)c1 | – | 84.8 µM | – | > 100 µM | – | 95.3 µM | – | > 100 µM | – | 78.4 µM | – | 38.7 µM | – | 79.2 µM | – | > 100 µM | – | 85.4 µM | – | > 100 µM
COc1cc(-c2nn(-c3cccc(NC(=O)NCCNS(=O)(=O)c4ccc(Cl)cc4)c3)cc2-c2ccncc2)ccc1Cl | 0.419 µM | > 100 µM | 0.956 µM | > 100 µM | 2.45 µM | 8.55 µM | 0.37 µM | 1.51 µM | – | – | 0.363 µM | > 100 µM | 0.207 µM | 0.515 µM | 1.03 µM | > 100 µM | 1.71 µM | 8.48 µM | 0.494 µM | 2.09 µM
Cc1cn(CCC(N)C(=O)O)c(=O)[nH]c1=O (stereo not drawn) | – | > 100 µM | – | > 100 µM | – | > 100 µM | – | > 100 µM | – | > 100 µM | – | > 100 µM | – | > 100 µM | – | > 100 µM | – | > 100 µM | – | > 100 µM
O=C1/C(=C/c2ccc(F)c(F)c2)CN(C(=O)C(Cl)Cl)C/C1=C\c1ccc(F)c(F)c1 | 0.0266 µM | > 100 µM | 0.312 µM | 0.925 µM | 0.0303 µM | 0.164 µM | 0.0359 µM | – | 0.0235 µM | > 100 µM | 0.0424 µM | 0.181 µM | 0.142 µM | 0.324 µM | 0.0491 µM | > 100 µM | 0.0564 µM | 1.31 µM | 0.0331 µM | 0.131 µM
CCN1C(=O)N(CC)C2C1NN=c1s/c(=C\c3cccs3)c(=O)n12 (stereo not drawn) | 0.256 µM | > 100 µM | 0.281 µM | > 29.9 µM | 0.0575 µM | > 100 µM | 0.0557 µM | > 100 µM | 0.0551 µM | > 100 µM | 0.0496 µM | > 100 µM | 0.0268 µM | 0.0828 µM | 0.396 µM | > 100 µM | 0.424 µM | > 100 µM | 0.245 µM | > 100 µM
C[C@]12CC[C@@H]3c4ccc(O)cc4CC[C@H]3[C@@H]1CC[C@@H]2NS(=O)(=O)c1cccc(Cl)c1 | 2.94 µM | 14.4 µM | 4.17 µM | 14.9 µM | 2.28 µM | 7.2 µM | 2.47 µM | 6.06 µM | 3.14 µM | 11.8 µM | 2.92 µM | 7.46 µM | 2.63 µM | 8.7 µM | 2.14 µM | 8.97 µM | 3.27 µM | 13.3 µM | 2.26 µM | 5.48 µM
CCOc1cc(C(=O)O)c2c(ccc3ccc(OC)c(OC)c32)c1OC | – | > 100 µM | – | > 100 µM | – | > 100 µM | – | > 100 µM | – | > 100 µM | – | > 100 µM | – | > 100 µM | – | > 100 µM | – | > 100 µM | – | > 100 µM
COc1cc(OC)c(/C=C/C(=O)c2ccc(Nc3ncnc4ccccc34)cc2)c(OC)c1 | 0.629 µM | 5.51 µM | 1.45 µM | 3.42 µM | 0.798 µM | 24.8 µM | 0.364 µM | 1.39 µM | – | – | 0.449 µM | 2.59 µM | 0.13 µM | 0.522 µM | 0.898 µM | > 100 µM | 1.34 µM | 3.54 µM | 0.686 µM | 2.73 µM
CCN(CC)CCC(=O)OC1C(C)=CC(C)C(=O)CC(C(C)CC2CCC(O)C(OC)C2)OC(=O)C2CCCCN2C(=O)C(=O)[C@@]2(O)OC(CCC2C)CC(OC)\C(C)=C/C=C/C=C/C(C)CC(C)C(=O)C1OC (stereo partly drawn) | – | 13.8 µM | – | 19.7 µM | – | 20.6 µM | – | 19.9 µM | – | 21.4 µM | – | 16.1 µM | – | 21.2 µM | – | – | – | 22.5 µM | – | 23.1 µM
COc1cc2c3c(n(CCCCNC(=O)OC(C)(C)C)c(=O)c2cc1OC)-c1cc2c(cc1C3=O)OCO2 | – | – | > 100 µM | > 100 µM | > 100 µM | > 100 µM | > 100 µM | > 100 µM | > 100 µM | > 100 µM | 5.15 µM | > 100 µM | > 100 µM | > 100 µM | – | – | > 100 µM | > 100 µM | > 100 µM | > 100 µM
